According to the supplement of paper PMC11208160:

Assay: recombinant UMI read abundance after kanamycin selection (control-corrected) (log10(CPM+1)); higher = more efficient recombination; extreme values may be limits of the assay; sequences stand for … in AGTGCAGAGAAAATCGGCCAGTTTTCTCTGCCTGCAGTCCGCATGCCGTGGGACCCCTTGGGTTCTAACCTGTTGCCTAGATTTATGCAGCGGACTGCCTTTCTCCCAAAGTGATAAACCGG…AGGTTGGTTTCACT; site = the 11-nt donor
Method in brief: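 The measure is log10(CPM+1) for recombinant UMIs. These were PCR-amplified across the donor–target junction and sequenced after Escherichia coli carrying a donor and donor-binding-loop pair library and a target plasmid with T7-inducible IS621 bridge recombinase was plated on IPTG (0.07 mM) plus kanamycin or unselected. CPM were averaged over two replicates and scaled by control-derived factors.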
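Further: IS621 bridge recombinase in Escherichia coli cells against a fixed T5 target plasmid.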

| Sequence | recombinant UMI read abundance (log10) |
| --- | --- |
| TAGGTAGCATGGACCGGTTTTCCCGGTAATCCGTATTTGAA (site TAGGTAGCTTT) | 1.67 |
| TAGGTAGCATGGACCGGTTTTCCCGGTAATCCGTATTTGAA (site TAGTTAGCTTT) | 0.0108 |
| TAGGTATCATGGACCGGTTTTCCCGGTAATCCGTATTTGCG (site TAGGAATCTCG) | 1.02 |
| TAGGTATCATGGACCGGTTTTCCCGGTAATCCGTATTTGCG (site TAGGCATCTCG) | 1.3 |
| TAGGTATCATGGACCGGTTTTCCCGGTAATCCGTATTTGCG (site TAGGGATCTCG) | 1.7 |
| TAGGTATCATGGACCGGTTTTCCCGGTAATCCGTATTTGCG (site TAGGTATCTCG) | 2.92 |
| TAGGTTGCATGGACCGGTTTTCCCGGTAATCCGTATTTGGC (site TAGGTTGCTGC) | 2.62 |
| TAGTACTCATGGACCGGTTTTCCCGGTAATCCGTATTTGCT (site TAGTACTCTAG) | 2.94 |
| TAGTAGTCATGGACCGGTTTTCCCGGTAATCCGTATTTGGG (site TAGTAGTCTCC) | 0.369 |
| TAGTCGACATGGACCGGTTTTCCCGGTAATCCGTATTTGGG (site AAGTCGACTCC) | 0.0151 |
| TAGTCGACATGGACCGGTTTTCCCGGTAATCCGTATTTGGG (site CAGTCGACTCC) | 0.0191 |
| TAGTCGACATGGACCGGTTTTCCCGGTAATCCGTATTTGGG (site GAGTCGACTCC) | 0.0292 |
| TAGTCGACATGGACCGGTTTTCCCGGTAATCCGTATTTGGG (site TAGTCGACTCC) | 0.0301 |
| TAGTCGGCATGGACCGGTTTTCCCGGTAATCCGTATTTGAT (site TAGTCGGCTAT) | 0.387 |
| TAGTTAGCATGGACCGGTTTTCCCGGTAATCCGTATTTGAA (site TAGATAGCTTT) | 0.0157 |
| TAGTTAGCATGGACCGGTTTTCCCGGTAATCCGTATTTGAA (site TAGCTAGCTTT) | 0.407 |
| TAGTTAGCATGGACCGGTTTTCCCGGTAATCCGTATTTGAA (site TAGGTAGCTTT) | 0.00722 |
| TAGTTAGCATGGACCGGTTTTCCCGGTAATCCGTATTTGAA (site TAGTTAGCTTT) | 1.33 |
| TATAACTCATGGACCGGTTTTCCCGGTAATCCGTATTTGGC (site TATAACTCTGC) | 1.35 |
| TATACACCATGGACCGGTTTTCCCGGTAATCCGTATTTGAC (site TATACACCTGT) | 0 |
| TATACACCATGGACCGGTTTTCCCGGTAATCCGTATTTGAC (site TCTACACCTGT) | 0.0077 |
| TATACACCATGGACCGGTTTTCCCGGTAATCCGTATTTGAC (site TGTACACCTGT) | 0 |
| TATACACCATGGACCGGTTTTCCCGGTAATCCGTATTTGAC (site TTTACACCTGT) | 0 |

| Sequence | recombinant UMI read abundance (log10) |
| --- | --- |
| TATATCTCATGGACCGGTTTTCCCGGTAATCCGTATTTGAA (site TATATCTCTTT) | 0.835 |
| TATATCTCATGGACCGGTTTTCCCGGTAATCCGTATTTGTA (site TATATCTCTTA) | 1.93 |
| TATCCTCCATGGACCGGTTTTCCCGGTAATCCGTATTTGTT (site TATCCTCCTAA) | 0.0195 |
| TATCCTTCATGGACCGGTTTTCCCGGTAATCCGTATTTGGT (site TAACCTTCTAC) | 0.00593 |
| TATCCTTCATGGACCGGTTTTCCCGGTAATCCGTATTTGGT (site TACCCTTCTAC) | 0.0066 |
| TATCCTTCATGGACCGGTTTTCCCGGTAATCCGTATTTGGT (site TAGCCTTCTAC) | 0.0208 |
| TATCCTTCATGGACCGGTTTTCCCGGTAATCCGTATTTGGT (site TATCCTTCTAC) | 0.31 |
| TATCGATCATGGACCGGTTTTCCCGGTAATCCGTATTTGAC (site TATCGATCTGT) | 1.86 |
| TATCTAGCATGGACCGGTTTTCCCGGTAATCCGTATTTGAA (site TAACTAGCTTT) | 0.0105 |
| TATCTAGCATGGACCGGTTTTCCCGGTAATCCGTATTTGAA (site TACCTAGCTTT) | 0.131 |
| TATCTAGCATGGACCGGTTTTCCCGGTAATCCGTATTTGAA (site TAGCTAGCTTT) | 0.00935 |
| TATCTAGCATGGACCGGTTTTCCCGGTAATCCGTATTTGAA (site TATCTAGCTTT) | 0.502 |
| TATCTATCATGGACCGGTTTTCCCGGTAATCCGTATTTGTC (site TATCTATCTGA) | 1.59 |
| TATCTCGCATGGACCGGTTTTCCCGGTAATCCGTATTTGCA (site TATCTCGCTTG) | 0.374 |
| TATCTGGCATGGACCGGTTTTCCCGGTAATCCGTATTTGTG (site TATATGGCTCA) | 0.0189 |
| TATCTGGCATGGACCGGTTTTCCCGGTAATCCGTATTTGTG (site TATCTGGCTCA) | 0.0196 |
| TATCTGGCATGGACCGGTTTTCCCGGTAATCCGTATTTGTG (site TATGTGGCTCA) | 0.00259 |
| TATCTGGCATGGACCGGTTTTCCCGGTAATCCGTATTTGTG (site TATTTGGCTCA) | 0.00973 |
| TATGCGGCATGGACCGGTTTTCCCGGTAATCCGTATTTGAT (site TATGCGGCTAT) | 0.581 |
| TATGCTACATGGACCGGTTTTCCCGGTAATCCGTATTTGGC (site TATGCTACTGC) | 0.253 |
| TATGGGCCATGGACCGGTTTTCCCGGTAATCCGTATTTGCT (site TATGGGCCTAG) | 0 |
| TATGGTACATGGACCGGTTTTCCCGGTAATCCGTATTTGGC (site TATGGTACTGC) | 1.67 |
| TATGTACCATGGACCGGTTTTCCCGGTAATCCGTATTTGGT (site TATGTACCTAC) | 0.011 |

| Sequence | recombinant UMI read abundance (log10) |
| --- | --- |
| TATGTCTCATGGACCGGTTTTCCCGGTAATCCGTATTTGCC (site TATGTCTCTGG) | 2.6 |
| TATTAGGCATGGACCGGTTTTCCCGGTAATCCGTATTTGTG (site TATTAGGCTCA) | 0.459 |
| TATTAGGCATGGACCGGTTTTCCCGGTAATCCGTATTTGTG (site TATTCGGCTCA) | 0.00717 |
| TATTAGGCATGGACCGGTTTTCCCGGTAATCCGTATTTGTG (site TATTGGGCTCA) | 0 |
| TATTAGGCATGGACCGGTTTTCCCGGTAATCCGTATTTGTG (site TATTTGGCTCA) | 0.0156 |
| TATTATCCATGGACCGGTTTTCCCGGTAATCCGTATTTGCT (site AATTATCCTAG) | 0.494 |
| TATTATCCATGGACCGGTTTTCCCGGTAATCCGTATTTGCT (site CATTATCCTAG) | 0 |
| TATTATCCATGGACCGGTTTTCCCGGTAATCCGTATTTGCT (site GATTATCCTAG) | 0 |
| TATTATCCATGGACCGGTTTTCCCGGTAATCCGTATTTGCT (site TATTATCCTAG) | 0.622 |
| TATTATGCATGGACCGGTTTTCCCGGTAATCCGTATTTGGA (site AATTATGCTTC) | 0.364 |
| TATTATGCATGGACCGGTTTTCCCGGTAATCCGTATTTGGA (site CATTATGCTTC) | 0.525 |
| TATTATGCATGGACCGGTTTTCCCGGTAATCCGTATTTGGA (site GATTATGCTTC) | 0.00418 |
| TATTATGCATGGACCGGTTTTCCCGGTAATCCGTATTTGGA (site TATTATGCTTC) | 0.177 |
| TATTCGCCATGGACCGGTTTTCCCGGTAATCCGTATTTGGG (site TATTCGCCTCC) | 0.0547 |
| TATTGACCATGGACCGGTTTTCCCGGTAATCCGTATTTGCG (site TATTGACCTCG) | 0.00685 |
| TATTGGACATGGACCGGTTTTCCCGGTAATCCGTATTTGAC (site AATTGGACTGT) | 0 |
| TATTGGACATGGACCGGTTTTCCCGGTAATCCGTATTTGAC (site CATTGGACTGT) | 0.701 |
| TATTGGACATGGACCGGTTTTCCCGGTAATCCGTATTTGAC (site GATTGGACTGT) | 0.0156 |
| TATTGGACATGGACCGGTTTTCCCGGTAATCCGTATTTGAC (site TATTGGACTGT) | 1.68 |
| TATTTCCCATGGACCGGTTTTCCCGGTAATCCGTATTTGTG (site TATTTCCCTCA) | 0.213 |
| TATTTCGCATGGACCGGTTTTCCCGGTAATCCGTATTTGTG (site TATTTAGCTCA) | 0.00938 |
| TATTTCGCATGGACCGGTTTTCCCGGTAATCCGTATTTGTG (site TATTTCGCTCA) | 0.00881 |
